Reference: patent US20080070954A1, “Acylurea Connected And Sulfonylurea Connected Hydroxamates” (S*BIO PTE LTD., priority 2003, published 2008)

What was measured:
[1] = target: T1, HDAC8 enzyme (recombinant GST-HDAC8) (Homo sapiens, UniProt Q9BY41); assay: In vitro HDAC assay for determination of IC50 values (BIOMOL fluorescent-based), HDAC8; format: biochemical; settings: 500 nM HDAC8 enzyme, 200 μM Flur de lys p53 peptide substrate, 2 h room temperature
T1 construct: Amplification of human HDAC1 and HDAC8 coding region from this cDNA library; made in house; host or cells: SF9 insect cells (baculovirus, pFASTBAC vector)
T1 sequence (Q9BY41 1-377): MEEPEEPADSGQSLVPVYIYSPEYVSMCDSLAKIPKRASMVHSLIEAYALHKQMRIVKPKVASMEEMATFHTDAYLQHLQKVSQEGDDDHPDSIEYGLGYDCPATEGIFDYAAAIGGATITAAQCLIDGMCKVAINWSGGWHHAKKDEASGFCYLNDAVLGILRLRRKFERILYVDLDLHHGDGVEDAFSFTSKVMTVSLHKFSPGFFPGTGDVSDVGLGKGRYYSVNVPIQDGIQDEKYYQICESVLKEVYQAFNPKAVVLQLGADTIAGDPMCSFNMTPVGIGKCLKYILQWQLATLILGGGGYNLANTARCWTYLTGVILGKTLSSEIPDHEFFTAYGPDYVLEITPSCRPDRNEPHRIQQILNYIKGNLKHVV
Protocol: Human cDNA library was prepared using cultured SW620 cells. Amplification of human HDAC1 and HDAC8 coding region from this cDNA library was cloned separately into the baculovirus expression pDEST20 vector and pFASTBAC vector respectively (GATEWAY Cloning Technology, Invitrogen Pte Ltd). […] Recombinant baculovirus was prepared using the Bac-To-Bac method following the manufacturer's instruction (Invitrogen Pte Ltd).
(§1) Expression of GST-HDAC1 or HTGST-HDAC8 was done by infecting SF9 cells (Invitrogen Pte Ltd) with pDEST20-HDAC1 or pFASTBAC-GST-HDAC8 baculovirus at MOI=1 for 48 h. Soluble cell lysate was incubated with pre-equilibrated Glutathione Sepharose 4B beads (Amersham) at 4° C. for 2 h. The beads were washed with PBS buffer for 3 times. The GST-HDAC1 protein or GST-HDAC8 protein was eluted by elution buffer containing 50 mM Tris, pH8.0, 150 mM NaCl, 1% Triton X-100 and 10 mM or 20 mM reduced Glutathione. The purified GST-HDAC1 protein or purified GST-HDAC8 protein was dialyzed with HDAC storage buffer containing 10 mM Tris, pH7.5, 100 mM NaCl and 3 mM MgCl2. 20% Glycerol was added to purified GST-HDAC1 protein or purified GST-HDAC8 before storage at −80° C.
The assay has been carried out in 96 well format and the BIOMOL fluorescent-based HDAC activity assay has been applied. […] Flur de lys Developer was added and the reaction was incubated for 10 min. Briefly, deacetylation of the substrate sensitizes it to the developer, which then generates a fluorophore. The fluorophore is excited with 360 nm light and the emitted light (460 nm) is detected on a fluorometric plate reader (Tecan Ultra Microplate detection system, Tecan Group Ltd.).
(§2) The analytical software, Prism 3.0® (GraphPad Software Inc) has been used to generate IC50 from a series of data.

[2] = target: T2, HDAC1 enzyme (recombinant GST-HDAC1) (Homo sapiens, UniProt Q13547); assay: In vitro HDAC assay for determination of IC50 values (BIOMOL fluorescent-based), HDAC1; format: biochemical; settings: 600 nM HDAC1 enzyme, 500 μM Flur de lys generic substrate, 2 h room temperature
T2 construct: Amplification of human HDAC1 and HDAC8 coding region from this cDNA library; made in house; host or cells: SF9 insect cells (baculovirus, pDEST20 vector)
Protocol: Human cDNA library was prepared using cultured SW620 cells. Amplification of human HDAC1 and HDAC8 coding region from this cDNA library was cloned separately into the baculovirus expression pDEST20 vector and pFASTBAC vector respectively (GATEWAY Cloning Technology, Invitrogen Pte Ltd). The pDEST20-HDAC1 and pFASTBAC-HTGST-HDAC8 constructs were confirmed by DNA sequencing. Recombinant baculovirus was prepared using the Bac-To-Bac method following the manufacturer's instruction (Invitrogen Pte Ltd). Baculovirus titer was determined by plaque assay to be about 10^8 PFU/ml.
as §1
The assay has been carried out in 96 well format and the BIOMOL fluorescent-based HDAC activity assay has been applied. The reaction composed of assay buffer, containing 25 mM Tris pH 7.5, 137 mM NaCl, 2.7 mM KCl, 1 mM MgCl2, 1 mg/ml BSA, tested compounds, 500 nM HDAC8 enzyme or 600 nM HDAC1 enzyme, 200 μM Flur de lys p53 peptide substrate for HDAC8 enzyme or 500 μM Flur de lys generic substrate for HDAC1 enzyme and subsequently was incubated at room temperature for 2 h. Flur de lys Developer was added and the reaction was incubated for 10 min. Briefly, deacetylation of the substrate sensitizes it to the developer, which then generates a fluorophore. The fluorophore is excited with 360 nm light and the emitted light (460 nm) is detected on a fluorometric plate reader (Tecan Ultra Microplate detection system, Tecan Group Ltd.).
as §2

[3] = system: Ramos Burkitt-lymphoma cells; assay: Apoptosis assay (Annexin V / PI staining, FACS); format: cell-based; settings: 48 hr after treatment with 10 μM
From the text: In various therapies such as for proliferative disorders like cancer, the selective induction of apoptosis in proliferating cells such as tumor cells is one of the desirable approaches, and can be mediated by treatment with various anti-proliferative compounds [Blagosklonny M V, Oncogene, 23(16): 2967 (2004); Kaufmann and Earnshaw, Exp Cell Res. 256(1): 42-9 (2000)]. Programmed cell death or apoptosis is the cellular response to stress factors such as DNA damage introduced during conventional anti-cancer treatment. The concerted sequence of events during apoptosis, clearly differentiate this pathway from a non-coordinated form of cell death called necrosis. During the course of apoptosis, characteristic phenotypical cellular changes occur, which include the condensation of chromatin, the shrinkage of cells and finally the fragmentation of chromosomal DNA. One of the very early changes caused by apoptotic events occurs in the phospholipids bilayer of the plasma membrane. The phospholipid phosphatidylserine is translocated from the inner to the outer side of the plasma-membrane and, as a result, is exposed to the extracellular space. One way of detecting early apoptotic cells is to determine the amount of phosphatidyl-serine at the extracellular side of the plasma-membrane which is accomplished by the standard flow cytometric method of Annexin V staining. […]

[4] = system: acetylated histone H2A in Colo205 cells; assay: Histone acetylation assay (western blot), histone H2A; format: cell-based, human; parameters: key: “Active” means accumulation of acetylated histone was observed when compared with control (without compound); settings: Colo205 cells, 0.1, 1, 5 and 10 μM, 24 h
Protocol: (§3) A hallmark of histone deacetylase (HDAC) inhibition is the increase in the acetylation level of histones. Histone acetylation, including H3, H4, H2A and H2B can be detected by immuno-blotting (western-blot). Colo205 cells, approximately 1.5×10^6 cells/10 cm dish, were seeded in the previously described medium, cultivated for 24 h and subsequently treated with HDAC inhibitory agents at 0.1, 1, 5 and 10 μM final concentration. After 24 h, cells were harvested and lysed according to the instruction from Sigma Mammalian Cell Lysis Kit. The protein concentration was quantified using BCA method (Sigma Pte Ltd). The protein lysate was separated using 4-12% bis-tris SDS-PAGE gel (Invitrogen Pte Ltd) and was transferred onto PVDF membrane (BioRad Pte Ltd). The membrane was probed separately using primary antibody specific for acetylated H3, acetylated H4 or acetylated H2A (Upstate Pte Ltd). The detection antibody, goat anti rabbit antibody conjugated with Horse radish peroxidase (HRP) was used according to the manufacturer instruction (Pierce Pte Ltd). After removing the detection antibody from the membrane, an enhanced chemiluminescent substrate for detection of HRP (Pierce Pte Ltd) was added onto the membrane. […] The density of each band observed on the developed film could be analysed using UVP Bioimaging software (UVP, Inc, Upland, Calif.). […]

[5] = system: MDA-MB231 human breast cancer cell line; assay: Cell-based proliferation assay for determination of GI50 values, MDA-MB231; settings: MDA-MB231 cells, 96 h treatment, cyquant assay
Protocol: (§4) Human colon cancer cell lines (Colo205) and human breast cancer cell lines (MDA-MB435 and MDA-MB231) were obtained from ATCC. Colo205 cells were cultivated in RPMI 1640 containing 2 mM L-Glutamine, 5% FBS, 1.0 mM Na Pyruvate. MDA-MB231 cells were cultivated in RPMI 1640 containing 2 mM L-glutamine, 5% FBS. MDA-MB435 cells were cultivated in DMEM containing 2 mM L-Glutamine, 5% FBS. Colo205 cells were seeded in 96-wells plate at 5000 cells per well respectively. MDA-MB435 and MDA-MB231 cells were seeded in 96-wells plate at 6000 cells per well. The plates were incubated at 37° C., 5% CO2, for 24 h. Cells were treated with compounds at various concentrations for 96 h. Cell growth was then monitored using cyquant cell proliferation assay (Invitrogen Pte Ltd). Dose response curves were plotted to determine GI50 values for the compounds using XL-fit (ID Business Solution, Emeryville, Calif.).

[6] = system: acetylated histone H2B in Colo205 cells; assay: Histone acetylation assay (western blot), histone H2B; format: cell-based, human; parameters: key: “Active” means accumulation of acetylated histone was observed when compared with control (without compound); settings: Colo205 cells, 0.1, 1, 5 and 10 μM, 24 h
Protocol: as §3

[7] = system: MDA-MB435 human breast cancer cell line; assay: Cell-based proliferation assay for determination of GI50 values, MDA-MB435; settings: MDA-MB435 cells, 96 h treatment, cyquant assay
Protocol: as §4

[8] = system: acetylated histone H4 in Colo205 cells; assay: Histone acetylation assay (western blot), histone H4; format: cell-based, human; parameters: key: “Active” means accumulation of acetylated histone was observed when compared with control (without compound); settings: Colo205 cells, 0.1, 1, 5 and 10 μM, 24 h
Protocol: (§5) A hallmark of histone deacetylase (HDAC) inhibition is the increase in the acetylation level of histones. Histone acetylation, including H3, H4, H2A and H2B can be detected by immuno-blotting (western-blot). Colo205 cells, approximately 1.5×10^6 cells/10 cm dish, were seeded in the previously described medium, cultivated for 24 h and subsequently treated with HDAC inhibitory agents at 0.1, 1, 5 and 10 μM final concentration. After 24 h, cells were harvested and lysed according to the instruction from Sigma Mammalian Cell Lysis Kit. The protein concentration was quantified using BCA method (Sigma Pte Ltd). The protein lysate was separated using 4-12% bis-tris SDS-PAGE gel (Invitrogen Pte Ltd) and was transferred onto PVDF membrane (BioRad Pte Ltd). The membrane was probed separately using primary antibody specific for acetylated H3, acetylated H4 or acetylated H2A (Upstate Pte Ltd). The detection antibody, goat anti rabbit antibody conjugated with Horse radish peroxidase (HRP) was used according to the manufacturer instruction (Pierce Pte Ltd). After removing the detection antibody from the membrane, an enhanced chemiluminescent substrate for detection of HRP (Pierce Pte Ltd) was added onto the membrane. After removing the substrate, the membrane was exposed to an X-ray film (Kodak) for 1 sec-20 mins. The X-ray film was developed using the X-ray film processor. The density of each band observed on the developed film could be analysed using UVP Bioimaging software (UVP, Inc, Upland, Calif.). The values were then normalized against the density of actin in the corresponding samples to obtain the expression of the protein.

[9] = system: acetylated histone H3 in Colo205 cells; assay: Histone acetylation assay (western blot), histone H3; format: cell-based, human; parameters: key: “Active” means accumulation of acetylated histone was observed when compared with control (without compound); settings: Colo205 cells, 0.1, 1, 5 and 10 μM, 24 h
Protocol: as §5

[10] = system: Colo205 human colon cancer cell line; assay: Cell-based proliferation assay for determination of GI50 values, Colo205; settings: COLO 205, Colo205 cells, 96 h treatment, cyquant assay, read-out: Colo 205 Gl50
Protocol: as §4

T2 sequence (Q13547 whole entry): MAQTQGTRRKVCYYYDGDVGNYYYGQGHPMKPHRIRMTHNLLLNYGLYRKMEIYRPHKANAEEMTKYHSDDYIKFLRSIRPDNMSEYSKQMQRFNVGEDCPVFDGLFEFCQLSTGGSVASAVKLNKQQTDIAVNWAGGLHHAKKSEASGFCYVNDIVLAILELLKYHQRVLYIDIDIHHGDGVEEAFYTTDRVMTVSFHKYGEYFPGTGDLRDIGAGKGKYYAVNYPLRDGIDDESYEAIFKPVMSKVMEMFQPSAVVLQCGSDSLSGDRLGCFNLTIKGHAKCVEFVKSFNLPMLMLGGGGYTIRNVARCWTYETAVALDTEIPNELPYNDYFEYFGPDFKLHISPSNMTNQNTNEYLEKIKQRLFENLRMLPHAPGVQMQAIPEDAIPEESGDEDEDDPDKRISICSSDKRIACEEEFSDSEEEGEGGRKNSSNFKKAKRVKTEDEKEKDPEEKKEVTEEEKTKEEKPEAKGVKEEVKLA

Row | SMILES | IC50 [1] | IC50 [2] | percentage of late apoptotic cells [3] | Hisotne 2A acetylation [4] | MDA-MB231 Gl50 [5] | Histone 2B acetylation [6] | MDA-MB435 Gl50 [7] | Histone 4 acetylation [8] | Histone 3 acetylation [9] | GI50 [10]
1 | Cc1ccc(S(=O)(=O)NC(=O)Nc2cccc(/C=C/C(=O)NO)c2)cc1 [Example 3, N-Hydroxy-3-{3-[3-(4-methylbenzenesulfonyl)ureido]-phenyl}-acrylamide] | 22 nM | 1540 nM | 84% | – | – | – | – | – | – | –
2 | O=C(/C=C/c1ccc(CN(CCc2c[nH]c3ccccc23)C(=O)NC(=O)c2ccccc2)cc1)NO [Example 11, 3-(4-{3-Benzoyl-1-[2-(1H-indol-3-yl)-ethyl]-ureidomethyl}phenyl)-N-hydroxy-acrylamide] | 210 nM | 4 nM | – | Active | 0.26 µM | Active | 0.62 µM | Active | Active | 260 nM
